Reference: patent US4520022A, “Substituted vinyl cephalosporins” (priority 1983, dated 1985)
In brackets after ≈: the same amount, converted by molar mass. Like-named read-outs stand apart in the source and are kept apart here.

Key:
[1] = mouse, in vivo
[2] = test system: Gp Ib: S. aureus 193, BX-1633-2 A9606, A15092, Russell, A9602; settings: Staphylococcus aureus
P. acnes A21933 = experiment: In vitro activity against anaerobes (MIC), P. acnes; assay type: cell-based; settings: Cutibacterium acnes; Gp cocci; P. acnes A21933; read-out: MIC
S. pyogenes = experiment: In vitro activity against Streptococci (MIC), S. pyogenes; assay type: cell-based; settings: Streptococcus pyogenes, Compound 9 lot 2
S. pneumoniae = experiment: In vitro activity against Streptococci (MIC), S. pneumoniae; assay type: cell-based; settings: Streptococcus pneumoniae, Compound 9 lot 2
[3] = test system: Gp Ia, Gp Ib, Gn Ia organisms of Table 2; experiment: Test medium comparison, agar dilution MIC, Mueller-Hinton agar versus nutrient agar
P. mirabilis A9554 = experiment: Protective dose PD50, mice infected with lethal inoculum, oral treatment, P. mirabilis A9554; assay type: in vivo
S. aureus BX-1633 = experiment: Protective dose PD50, mice infected with lethal inoculum, oral treatment, S. aureus BX-1633; assay type: in vivo; settings: Staphylococcus aureus, BX1633, 120 h
N. meningitidis = experiment: In vitro activity against Neisseria (MIC), N. meningitidis; assay type: cell-based
N. gonorrheae = experiment: In vitro activity against Neisseria (MIC), N. gonorrheae; assay type: cell-based
H. influenza A9729 = experiment: Protective dose PD50, mice infected with lethal inoculum, oral treatment, H. influenza A9729; assay type: in vivo; settings: Mus musculus, 120 h
Source text: The structure activity correlations drawn from the foregoing in vitro studies are born out by the results of in vivo studies in mice. Table 4 is a tabulation of the protective doses for mice infected with a lethal inoculum of a bacteria. Two different bacteria were employed in the studies, one a Gram+ organism and the other a Gram- organism. The protective dose (PD50) is that dose which when administered to a group of infected mice results in 50% survival after five days. Normally untreated infected mice die within three days following injection of the lethal inoculum.
Protective Dose PD50 for Mice Infected with Lethal Inoculum

S. pyogenes A20201 = experiment: Protective dose PD50, mice infected with lethal inoculum, oral treatment, S. pyogenes A20201; assay type: in vivo; settings: Streptococcus pyogenes, 120 h
P. anaerobius A21905 = experiment: In vitro activity against anaerobes (MIC), P. anaerobius; assay type: cell-based; settings: Peptostreptococcus anaerobius; Gp cocci; P. anaerobius A21905; read-out: MIC
C. perfringens A9645 = experiment: microbe, parasite or virus in culture; assay type: cell-based; settings: Clostridium perfringens
Gp, rods; Gp, cocci = experiment: microbe, parasite or virus in culture; assay type: cell-based, C. difficile; C. perfringens; P. acnes; P. anaerobius; settings: read-out: MIC, Geometric Mean
E. coli Juhl = experiment: Protective dose, mice infected with lethal inoculum, oral treatment, E. coli Juhl; assay type: in vivo
S. aureus Smith = experiment: Protective dose, mice infected with lethal inoculum, oral treatment, S. aureus Smith; assay type: in vivo; settings: Staphylococcus aureus, po, 120 h, oral, read-out: Protective dose (PD50), S. aureus Smith
H. influenzae = experiment: In vitro activity against Haemophilis (MIC), H. influenzae; assay type: cell-based; settings: Haemophilus influenzae, Compound 9 lot 2
in vivo = settings: mouse; for half-life: T1/2
B. fragilis = experiment: In vitro activity against anaerobes (MIC), B. fragilis; assay type: cell-based; settings: Bacteroides fragilis
[4] = test system: Gp Ia: S. aureus Smith A9537, A9497, Terajima, A9534, A9601; settings: Staphylococcus aureus

C/C=C\C1=C(C(=O)O)N2C(=O)[C@@H](NC(=O)[C@H](N)c3ccc(O)cc3)[C@H]2SC1 [Compound 9, 7β-[D-2-amino-(p-hydroxyphenyl)acetamido]-3-[(Z)-1-propen-1-yl]-3-cephem-4-carboxylic Acid]
T1/2 ([1]; im, 20 mg/kg): 0.48
T1/2 ([1]; po, 20 mg/kg): 1.7
T1/2 ([1]; po, 100 mg/kg): 1.3 h
MIC ([2]; read-out: Minimum Inhibitory Concentration Gp Ib, Mueller-Hinton agar, run 1, average of five organisms): 0.92 µg/mL (≈ 2.36 µM)
MIC ([2]; read-out: Minimum Inhibitory Concentration Gp Ib, Mueller-Hinton agar, run 2, average of five organisms): 0.8 µg/mL (≈ 2.05 µM)
MIC ([2]; read-out: Minimum inhibitory Concentration Gp Ib, Test Medium Comparison, A: Mueller-Hinton agar, average values): 0.92 µg/mL (≈ 2.36 µM)
MIC ([2]; read-out: Minimum inhibitory Concentration Gp Ib, Test Medium Comparison, B: Nutrient agar, average values): 0.35 µg/mL (≈ 0.899 µM)
MIC (P. acnes A21933): 0.4 µg/mL (≈ 1.03 µM)
MIC (S. pyogenes; S. pyogenes A9604, read-out: MIC): 0.05 µg/mL (≈ 0.128 µM)
MIC (S. pyogenes; S. pyogenes A15040, read-out: MIC): 0.05 µg/mL (≈ 0.128 µM)
MIC (S. pyogenes; S. pyogenes A20065, read-out: MIC): 0.05 µg/mL (≈ 0.128 µM)
MIC (S. pyogenes; S. pyogenes A20201, read-out: MIC): 0.1 µg/mL (≈ 0.257 µM)
MIC (S. pyogenes; S. pyogenes Dick, read-out: MIC): 0.05 µg/mL (≈ 0.128 µM)
MIC (S. pyogenes; S. pyogenes S-23, Dick, A9604, A20065, A15040, read-out: MIC, Geometric Mean): 0.05 µg/mL (≈ 0.128 µM)
MIC (S. pyogenes; S. pyogenes S-23, read-out: MIC): 0.05 µg/mL (≈ 0.128 µM)
MIC (S. pneumoniae; S. pneumoniae A9585, read-out: MIC): 0.2 µg/mL (≈ 0.514 µM)
MIC (S. pneumoniae; S. pneumoniae A15069, read-out: MIC): 0.2 µg/mL (≈ 0.514 µM)
MIC (S. pneumoniae; S. pneumoniae A20759, read-out: MIC): 0.2 µg/mL (≈ 0.514 µM)
MIC (S. pneumoniae; S. pneumoniae Type I, read-out: MIC): 0.2 µg/mL (≈ 0.514 µM)
MIC (S. pneumoniae; S. pneumoniae Type II, I, III, A9585, A15069, read-out: MIC, Geometric Mean): 0.2 µg/mL (≈ 0.514 µM)
MIC (S. pneumoniae; S. pneumoniae Type II, read-out: MIC): 0.2 µg/mL (≈ 0.514 µM)
MIC (S. pneumoniae; S. pneumoniae Type III, read-out: MIC): 0.2 µg/mL (≈ 0.514 µM)
difference in MIC between the two media [3]: less than three fold
Protective Dose PD50 (P. mirabilis A9554): 1.8
ED50 (S. aureus BX-1633): 2.2 mg/kg
MIC (N. meningitidis; N. meningitidis A21487, Compound 9 lot 2): 0.8 µg/mL (≈ 2.05 µM)
MIC (N. meningitidis; N. meningitidis A21496, Compound 9 lot 2): 0.8 µg/mL (≈ 2.05 µM)
MIC (N. meningitidis; N. meningitidis A21497, Compound 9 lot 2): 0.8 µg/mL (≈ 2.05 µM)
MIC (N. meningitidis; Neisseria meningitidis, read-out: MIC): 0.8 µg/mL (≈ 2.05 µM)
MIC (N. meningitidis; Neisseria meningitidis, read-out: MIC, Geometric Mean): 0.8 µg/mL (≈ 2.05 µM)
MIC (N. gonorrheae; N. gonorrheae A20142, Compound 9 lot 2): 0.8 µg/mL (≈ 2.05 µM)
MIC (N. gonorrheae; N. gonorrheae A20143, Compound 9 lot 2): 0.8 µg/mL (≈ 2.05 µM)
MIC (N. gonorrheae; N. gonorrheae A20154, Compound 9 lot 2): 0.8 µg/mL (≈ 2.05 µM)
MIC (N. gonorrheae; N. gonorrheae A20155, Compound 9 lot 2): 0.8 µg/mL (≈ 2.05 µM)
MIC (N. gonorrheae; read-out: MIC): 0.8 µg/mL (≈ 2.05 µM)
MIC (N. gonorrheae; read-out: MIC, Geometric Mean): 0.8 µg/mL (≈ 2.05 µM)
ED50 (H. influenza A9729): 1.8 mg/kg
ED50 (S. pyogenes A20201): 0.11 mg/kg
MIC (P. anaerobius A21905): 0.8 µg/mL (≈ 2.05 µM)
MIC (C. perfringens A9645): 0.4 µg/mL (≈ 1.03 µM)
MIC (Gp, rods; Gp, cocci): 0.95 µg/mL (≈ 2.44 µM)
ED50 (E. coli Juhl; Escherichia coli, po, 120 h, oral, 50% survival for 5 days, groups of 5 mice, read-out: Protective dose (PD50), E. coli Juhl): 1.2 mg/kg
activity against the Gram- infection (E. coli Juhl; in words): more active against the Gram- infection
ED50 (S. aureus Smith; 50% survival for 5 days, groups of 5 mice): 0.14 mg/kg
ED50 (S. aureus Smith; separate run of Compound 42 and BMY28100, cephalexin/cefadroxil controls not available): 0.16 mg/kg
MIC (H. influenzae; H. influenzae A9729, read-out: MIC): 0.8 µg/mL (≈ 2.05 µM)
MIC (H. influenzae; H. influenzae A9833, read-out: MIC): 0.8 µg/mL (≈ 2.05 µM)
MIC (H. influenzae; H. influenzae A20177, read-out: MIC): 0.8 µg/mL (≈ 2.05 µM)
MIC (H. influenzae; H. influenzae A20193, read-out: MIC): 0.8 µg/mL (≈ 2.05 µM)
MIC (H. influenzae; H. influenzae A21523, read-out: MIC): 0.8 µg/mL (≈ 2.05 µM)
MIC (H. influenzae; H. influenzae A22482, read-out: MIC): 0.8 µg/mL (≈ 2.05 µM)
MIC (H. influenzae; H. influenzae A22483, read-out: MIC): 0.8 µg/mL (≈ 2.05 µM)
MIC (H. influenzae; H. influenzae, seven strains above, read-out: MIC, Geometric Mean): 0.8 µg/mL (≈ 2.05 µM)
Cmax (in vivo; im, 20 mg/kg): 28000 ng/mL
half-life (in vivo; im, 20 mg/kg): 0.88 h
AUC (in vivo; po, 20 mg/kg, AUC*): 26000 ng·h/mL
Cmax (in vivo; po, 20 mg/kg): 15000 ng/mL
half-life (in vivo; po, 20 mg/kg): 1.9 h
AUC (in vivo; po, 100 mg/kg, AUC): 106000 ng·h/mL
Cmax (in vivo; po, 100 mg/kg): 56000 ng/mL
half-life (in vivo; po, 100 mg/kg): 1.9 h
MIC (B. fragilis; B. fragilis A20928-1, A21900, A20935, β-lactamase (-), read-out: MIC, Geometric Mean): 3.2 µg/mL (≈ 8.22 µM)
MIC (B. fragilis; B. fragilis A20928-1, β-lactamase (-), read-out: MIC): 0.8 µg/mL (≈ 2.05 µM)
MIC (B. fragilis; B. fragilis A20935, β-lactamase (-), read-out: MIC): 0.8 µg/mL (≈ 2.05 µM)
MIC (B. fragilis; B. fragilis A21900, β-lactamase (-), clindamycin resistant, read-out: MIC): 50 µg/mL (≈ 128 µM)
MIC (B. fragilis; B. fragilis A22021, β-lactamase (+), read-out: MIC): > 100 µg/mL
MIC (B. fragilis; B. fragilis A22053, A22021, A22693, β-lactamase (+), read-out: MIC, Geometric Mean): > 100 µg/mL
MIC (B. fragilis; B. fragilis A22053, β-lactamase (+), read-out: MIC): 50 µg/mL (≈ 128 µM)
MIC (B. fragilis; B. fragilis A22533, β-lactamase (+), read-out: MIC): > 100 µg/mL
MIC (B. fragilis; B. fragilis A22693, β-lactamase (+), read-out: MIC): > 100 µg/mL
MIC (B. fragilis; B. fragilis A22695, A22533, β-lactamase (+), read-out: MIC, Geometric Mean): > 100 µg/mL
MIC (B. fragilis; B. fragilis A22695, β-lactamase (+), read-out: MIC): > 100 µg/mL
MIC ([4]; read-out: Minimum Inhibitory Concentration Gp Ia, Mueller-Hinton agar, run 1, average of five organisms): 0.23 µg/mL (≈ 0.591 µM)
MIC ([4]; read-out: Minimum Inhibitory Concentration Gp Ia, Mueller-Hinton agar, run 2, average of five organisms): 0.35 µg/mL (≈ 0.899 µM)
MIC ([4]; read-out: Minimum inhibitory Concentration Gp Ia, Test Medium Comparison, A: Mueller-Hinton agar, average values): 0.23 µg/mL (≈ 0.591 µM)
MIC ([4]; read-out: Minimum inhibitory Concentration Gp Ia, Test Medium Comparison, B: Nutrient agar, average values): 0.17 µg/mL (≈ 0.437 µM)
